1 molecule from patent US10973228B2, “Eco-friendly non-aqueous antimicrobial composition comprising hinokitiol with 1,3-propanediol and/or sorbitan caprylate” (ISP INVESTMENTS INC., priority 2012, dated 2021) can be followed below.

Converted amounts (≈) assume the structure as drawn.

Common to all, as to assay type: cell-based
Experiment [1] deals with Burkholderia cepacia (DSM 7288). In words: MIC study on agar, bacterial strain. The settings on record: DSM7288, ppm of antimicrobial active (Hinokitiol), Caso-Agar pH 7.3, 2 to 3 weeks at 20 to 25° C. The protocol:
(§1) The individual concentrations of the test-product were weighed into sterile Erlenmeyer flasks and mixed with 100 ml of an appropriate growth media at a maximum temperature of about 40 to 50° C. Equal amounts of mixtures were poured into four Petri dishes. After cooling, the Petri dishes were inoculated with the respective standard strains. During the experiment, the Petri dishes were kept for 2 to 3 weeks at room temperature of about 20 to 25° C. in the dark. The following two different types of culture media were employed for the present studies: • i. Bacteria-Agar: merchantable Caso—Agar pH-Value: 7.3±0.2 • ii. Fungi/Yeast-Agar:merchantable Malt extract—Agar (3%) pH-Value: 5.6±0.2
(§2) After 2nd and 3rd weeks macroscopic evaluations were performed, the ratings are as follows:
(§3) The formulation under examination is considered to be efficient if the following conditions are duly fulfilled i.e. (i) after 2-3 weeks no growth of the tested culture is visible; (ii) with rising concentration of the tested formulation, the germ growth should macroscopically be reduced until it is not visible any more.

Experiment [2] relates to Escherichia coli (DSM 1576). In words: MIC study on agar, bacterial strain. The conditions noted are these: for reduction of MIC level of hinokitiol: against Escherichia coli. As for the experimental part:
as §1, §2, §3

Experiment [3] has as its system Pseudomonas aeruginosa (DSM 1128). As to the kind of experiment: MIC study on agar, bacterial strain. The settings on record: DSM1128, ppm of antimicrobial active (Hinokitiol), Caso-Agar pH 7.3, 2 to 3 weeks at 20 to 25° C. The protocol: as §1, §2, §3
Experiment [4] deals with Staphylococcus aureus (DSM 799). In words: MIC study on agar, bacterial strain. As for the experimental part: as §1, §2, §3
For experiment [5], the system named is Aspergillus brasiliensis (DSM 1988). As to the kind of experiment: MIC study on agar, fungal strain. The settings on record: DSM1988, ppm of antimicrobial active (Hinokitiol), Malt extract-Agar (3%) pH 5.6, 2 to 3 weeks at 20 to 25° C. The protocol: as §1, §2, §3
For experiment [6], the system named is Trichoderma viride (DSM 63064). As to the kind of experiment: MIC study on agar, fungal strain. The conditions noted are these: DSM63064, ppm of antimicrobial active (Hinokitiol), Malt extract-Agar (3%) pH 5.6, 2 to 3 weeks at 20 to 25° C. The protocol:
as §1, §2, §3

One may read the MIC as the lowest concentration that inhibits growth of the organism. Read a high MIC as a less susceptible organism. With `CC(C)c1cccc(O)c(=O)c1` [Hinokitiol, 2-Hydroxy-6-propan-2-ylcyclohepta-2,4,6-trien-1-one], the MIC in experiment [1] turned out to be 500 µg/mL (≈ 3040 µM); in experiment [2] (DSM1576, Escherichia coli, ppm of antimicrobial active (Hinokitiol), Caso-Agar pH 7.3, 2 to 3 weeks at 20 to 25° C.), 100 µg/mL (≈ 609 µM); in experiment [3], 500 µg/mL (≈ 3040 µM); in experiment [4] (DSM799, Staphylococcus aureus, ppm of antimicrobial active (Hinokitiol), Caso-Agar pH 7.3, 2 to 3 weeks at 20 to 25° C.), 100 µg/mL (≈ 609 µM); in experiment [5] it was 100 µg/mL (≈ 609 µM); in experiment [6] it was 100 µg/mL (≈ 609 µM). The “reduction of MIC level of hinokitiol” value worked out at 50% in experiment [2] (in presence of 1,3-propanediol (Zemea)); 50% in experiment [2] (in presence of sorbitan caprylate (Velsan SC)); 50% in experiment [4] (in presence of 1,3-propanediol (Zemea), against Staphylococcus aureus).
